Holding throughout (type): cell-based
In experiment [1] the test system is HEK293 cells overexpressing APOL1 G2. The experiment is described as follows: APOL1 G2 HEK293 cell rescue assay (reversal of cell death caused by overexpression of APOL1). As to conditions: geometric mean of at least 2 assay runs, † = single assay run. The essentials:
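EC50 is the half-maximal effective concentration for reversing cell death driven by APOL1 G2 overexpression in HEK293 cells. Reported as geometric mean of at least 2 runs on separate days, each run averaging duplicate wells per plate; some values from a single run.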

The subject of experiment [2] is Trypanosoma brucei Lister 427 VSG221 with APOL1 G0 recombinant protein. The experiment is described as follows: APOL1 G0 trypanosome cell rescue assay (Example B5). The note with it: geometric mean of at least 2 assay runs, † = single assay run. The method, then: (§1) APOL1 G0/G1/G2 viability assay for measurement of cytotoxicity reversal by compound in trypanosomes (APOL1 G0/G1/G2 trypanosome cell rescue assay).
(§2) APOL1 protein expression and purification. The mature from of APOL1 proteins, residues 28-398, were expressed from a pET28a vector with an N-terminal His-tag and TEV cleavage site. Proteins were expressed in Escherichia coli BL21-CodonPlus (DE3)-RIPL cells. Liter cultures of terrific broth were grown at 37° C. until an OD600 of ˜0.8 was reached and then induced with isopropyl β-D-1-thiogalactopyranoside (IPTG; final concentration of 500 μM). Afterwards, cultures were grown for 3 hours at 37° C. For protein purification, cell pellets were resuspended in lysis buffer (50 mM Tris, pH 8.5, 5 mM EDTA, 0.5 mM DTT, 0.5 mM PMSF) supplemented with a cocktail of protease inhibitors. Cells were lysed by sonication, centrifuged, and the resulting pellet was collected. The homogenized pellet was resuspended in wash buffer (50 mM Tris, pH 8.5, 0.5 M NaCl, 5 mM EDTA, 0.5 mM DTT, 0.5 mM PMSF, protease inhibitor cocktail) and collected by centrifugation. Inclusion body dissolution was then conducted as previously reported (PNAS 112(9) (2015) 2894-2899; www.pnas.org/cgi/doi/10.1073/pnas.1421953112; herein incorporated by reference in its entirety). The solubilized APOL1 protein was applied to a nickel column (HisTrap, GE Life Sciences) preequilibrated in buffer A (50 mM Tris, pH 8.5, 0.15 M NaCl, 1% zwittergent 3-14, protease inhibitor cocktail). The resin was washed with buffer B (50 mM Tris, pH 8.5, 0.15 M NaCl, 0.1% DDM) and TEV cleavage was conducted on column overnight. Afterwards, the column was washed with buffer B, followed by His-washing buffer (50 mM Tris, pH 8.5, 0.15 M NaCl, 0.1% DDM, 10 mM imidazole). The protein was then removed from the resin using His-elution buffer (50 mM Tris, pH 8.5, 0.15 M NaCl, 0.1% DDM, 250 mM imidazole). The sample was further purified by size exclusion chromatography using a Superdex 200 Increase column (GE Life Sciences) in 50 mM Tris, pH 8.5, 0.15 M NaCl, and 0.1% DDM buffer. All APOL1 proteins (G0, G1, and G2) were generated at Viva Biotech (Shanghai) Ltd.
(§3) Modified HMI-9 media preparation (https://tryps.rockefeller.edu/trypsru2_culture_media_preparation.html; herein incorporated by reference in its entirety). Trypanosomes were cultured in modified HMI-9 media consisting of IMDM (ThermoFisher, 12440053), 10% heat-inactivated FBS (Gibco, 10082-147), 10% Serum Plus (Sigma-Aldrich, 14008C), 1×HMI-9 supplement stock, and 1% hypoxanthine stock. The 10×HMI-9 supplement stock was made by dissolving 280 mg bathocuproine disulfonic acid (Sigma-Aldrich, 146625), 1820 mg cysteine (add after bathocuproine) (Sigma-Aldrich, 30089), 1100 mg pyruvic acid (Sigma-Aldrich, 107360), 100 mg uracil (Sigma-Aldrich, U0750), 100 mg cytosine (Sigma-Aldrich, C3506) and 140 μL 2-mercaptoethanol (Sigma-Aldrich, M3148) in 1000 mL of water. The resulting solution was aliquoted and stored at −20° C. The hypoxanthine stock was made by dissolving 4 g of NaOH into 1000 mL of water. Afterwards, 13.6 g hypoxanthine (Sigma-Aldrich, H9377) was added to this mixture. The resulting solution was aliquoted and stored at −20° C.
(§4) Assay Setup. Trypanosoma brucei Lister 427 VSG221 (ATCC, PRA-382) cells were cultured in modified HMI-9 media. All experiments were performed in 384-well, white, solid bottom, tissue culture treated plates (Greiner, 781080). Assay ready plates were generated with duplicate 11-point compound dilution series that consisted of 2-fold stepwise dilutions (0.4% DMSO final). To each well, was added 20 μL of 2 μg/mL of APOL1 G0, G1, or G2 recombinant protein in modified HMI-9 media using a MultiDrop Combi (final APOL1 protein concentration=[…]). Trypanosomes were counted using a hemacytometer and diluted in modified HMI-9 media to a concentration of 1.25×10^4 cell/mL. […]

For experiment [3], the system named is Trypanosoma brucei Lister 427 VSG221 with APOL1 G2 recombinant protein. The experiment is described as follows: APOL1 G2 trypanosome cell rescue assay (Example B5). As to conditions: geometric mean of at least 2 assay runs, † = single assay run. Here is the method: as §1, §2, §3, §4
The test system of experiment [4] is HEK293 clonal cell line overexpressing APOL1 G1. The experiment is described as follows: APOL1 G1 HEK293 cell rescue assay (Example B3). As to conditions: geometric mean of at least 2 runs, † = single run, ¥ = concentration at 50% rescue estimated (no sigmoidal curve). The method in brief: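 HEK293 clonal line overexpressing APOL1 G1; EC50 is half-maximal reversal of APOL1-induced cell death. Values are the geometric mean of ≥2 runs on separate days, each run the average of duplicate wells. Where no sigmoidal curve could be fitted, the concentration giving 50% rescue was estimated.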

In experiment [5] the test system is Trypanosoma brucei Lister 427 VSG221 with APOL1 G1 recombinant protein. The experiment is described as follows: APOL1 G1 trypanosome cell rescue assay (Example B5). As to conditions: geometric mean of at least 2 assay runs, † = single assay run. Here is the method: as §1, §2, §3, §4
Where [6] appears, read: Homo sapiens, HEK293, HEK293 overexpressing APOL1 G2.
Where [7] appears, read: Trypanosoma brucei, 20 h, read-out: APOL1 G0 Trypanosome Rescue EC50, Trypanosoma brucei Lister 427 VSG221 with APOL1 G0 recombinant protein, 20 hours, CellTiter-Glo.
The mark [8] stands for this setting: Trypanosoma brucei, 20 h, read-out: APOL1 G2 Trypanosome Rescue EC50, Trypanosoma brucei Lister 427 VSG221 with APOL1 G2 recombinant protein, 20 hours, CellTiter-Glo.
Setting [9] is: Homo sapiens, HEK293, HEK293 clonal line overexpressing APOL1 G1.
Where [10] appears, read: Trypanosoma brucei, 20 h, read-out: APOL1 G1 Trypanosome Rescue EC50, Trypanosoma brucei Lister 427 VSG221 with APOL1 G1 recombinant protein, 20 hours, CellTiter-Glo.
Setting [11] is: read-out: APOL1 G0 Trypanosome Rescue EC50, Trypanosoma brucei Lister 427 VSG221 with APOL1 G0 recombinant protein, 20 hours, CellTiter-Glo.
Where [12] appears, read: read-out: APOL1 G2 Trypanosome Rescue EC50, Trypanosoma brucei Lister 427 VSG221 with APOL1 G2 recombinant protein, 20 hours, CellTiter-Glo.
Setting [13] is: HEK293 clonal line overexpressing APOL1 G1.
Setting [14] is: read-out: APOL1 G1 Trypanosome Rescue EC50, Trypanosoma brucei Lister 427 VSG221 with APOL1 G1 recombinant protein, 20 hours, CellTiter-Glo.

The structures appear in SMILES notation. Read-outs that look alike come from different tables or passages of the source.

For `C[C@]1(O)C[C@@H](n2c(=O)n(CO)c3cc(OCCN4CCC5(CC4)C(=O)Nc4ccc(C#N)cc45)cc(C(F)(F)F)c32)C1` [Compound 469, 1′-(2-{[3-(hydroxymethyl)-2-oxo-1-[(cis)-3-hydroxy-3-methylcyclobutyl]-7-(trifluoromethyl)-2,3-dihydro-1H-1,3-benzodiazol-5-yl]oxy}ethyl)-2-oxo-1,2-dihydrospiro[indole-3,4′-piperidine]-5-carbonitrile], the EC50 in experiment [1] (setting [6]) was 19.9 nM; in experiment [2] (setting [7]), 9.76 nM; in experiment [3] (setting [8]) it was 5.33 nM; in experiment [4] (setting [9]), 48.7 nM; in experiment [5] (setting [10]), 15.5 nM.
In the case of `O=C1CCc2cc(OCCN3CCC4(CC3)C(=O)Nc3ccc(Cl)cc34)cnc2N1[C@H]1C[C@@H](O)C1` [Compound 190, 5-chloro-1′-[2-({7-oxo-8-[(cis)-3-hydroxycyclobutyl]-5,6,7,8-tetrahydro-1,8-naphthyridin-3-yl}oxy)ethyl]-1,2-dihydrospiro[indole-3,4′-piperidin]-2-one], the 50% effective concentration (EC50) in experiment [1] (setting [6]) was 54.7 nM; in experiment [2] (setting [7]), 92.1 nM; in experiment [3] (setting [8]), 35.7 nM; in experiment [4] (setting [9]) it was 105 nM; in experiment [5] (setting [10]), 104 nM.
Turning to `CC1(C)OCC(c2ncc(OCCN3CCC4(CC3)C(=O)Nc3ccc(Cl)cc34)cn2)O1` (stereo not drawn) [Compound 441, 5-chloro-1′-(2-{[2-(2,2-dimethyl-1,3-dioxolan-4-yl)pyrimidin-5-yl]oxy}ethyl)-1,2-dihydrospiro[indole-3,4′-piperidin]-2-one], the half-maximal effective concentration (EC50) is 57.4 nM in experiment [1] (setting [6]); 144 nM in experiment [2] (setting [7]); 78.3 nM in experiment [3] (setting [8]); 96.1 nM in experiment [4] (setting [9]); 215 nM in experiment [5] (setting [10]).
In the case of `CC1(O)CN(c2ncc(OCCN3CCC4(CC3)C(=O)Nc3ccc(Cl)cc34)cc2C(F)(F)F)C1` [Compound 405, 5-chloro-1′-(2-{[6-(3-hydroxy-3-methylazetidin-1-yl)-5-(trifluoromethyl)pyridin-3-yl]oxy}ethyl)-1,2-dihydrospiro[indole-3,4′-piperidin]-2-one], the EC50 was 9.59 nM in experiment [1] (setting [6]); 20 nM in experiment [2] (setting [7]); 8.06 nM in experiment [3] (setting [8]); 19.2 nM in experiment [4] (setting [9]); 21.6 nM in experiment [5] (setting [10]).
For the compound `CC1(O)CC(CN2C(=O)CCc3cc(OCCN4CCC5(CC4)C(=O)Nc4ccc(C(F)F)cc45)cnc32)C1` (single isomer, unassigned) [Compound 312, 5-(difluoromethyl)-1′-{2-[(7-oxo-8-{[(trans) or (cis)-3-hydroxy-3-methylcyclobutyl]methyl}-5,6,7,8-tetrahydro-1,8-naphthyridin-3-yl)oxy]ethyl}-1,2-dihydrospiro[indole-3,4′-piperidin]-2-one], the EC50 in experiment [1] (HEK293 overexpressing APOL1 G2) was 24.3 nM; in experiment [2] (setting [11]), 28.2 nM; in experiment [3] (setting [12]) it was 10.1 nM; in experiment [4] (setting [13]), 66.5 nM; in experiment [5] (setting [14]), 34.4 nM.
Turning to `CC(=O)c1ncc(OCCN2CCC3(CC2)C(=O)Nc2ccc(C#N)cc23)cc1C(F)(F)F` [Compound 298, 1′-(2-{[6-acetyl-5-(trifluoromethyl)pyridin-3-yl]oxy}ethyl)-2-oxo-1,2-dihydrospiro[indole-3,4′-piperidine]-5-carbonitrile], the EC50 in experiment [1] (setting [6]) is 81.8 nM; in experiment [2] (setting [7]), 119 nM; in experiment [3] (setting [8]), 56.6 nM; in experiment [4] (setting [9]) it was 218 nM; in experiment [5] (setting [10]), 156 nM.
For the compound `C[C@]1(O)C[C@@H](N2C(=O)CCc3cc(OCCN4CCC5(CC4)C(=O)Nc4c(I)cc(Cl)cc45)cnc32)C1` [Compound 329, 5-chloro-7-iodo-1′-[2-({7-oxo-8-[(cis)-3-hydroxy-3-methylcyclobutyl]-5,6,7,8-tetrahydro-1,8-naphthyridin-3-yl}oxy)ethyl]-1,2-dihydrospiro[indole-3,4′-piperidin]-2-one], the half-maximal effective concentration (EC50) in experiment [1] (setting [6]) is 56.9 nM; in experiment [2] (setting [7]), 199 nM; in experiment [3] (setting [8]), 67.3 nM; in experiment [4] (setting [9]), 96.1 nM; in experiment [5] (setting [10]), 240 nM.
On to `CS(=O)(=O)C1(c2ccc(OCCN3CCC4(CC3)C(=O)Nc3ccc(C(F)F)cc34)cc2)CC(O)C1` (single isomer, unassigned) [Compound 282, 5-(difluoromethyl)-1′-(2-{4-[(trans) or (cis)-3-hydroxy-1-methanesulfonylcyclobutyl]phenoxy}ethyl)-1,2-dihydrospiro[indole-3,4′-piperidin]-2-one], for which the EC50 in experiment [1] (HEK293 overexpressing APOL1 G2) is 130 nM; in experiment [2] (setting [11]) it was 181 nM; in experiment [3] (setting [12]) it was 59.8 nM; in experiment [4] (setting [13]), 383 nM; in experiment [5] (setting [14]), 230 nM.
For the compound `C[C@]1(O)C[C@@H](c2nc3cc(OCCN4CCC5(CC4)C(=O)Nc4ccc(Cl)cc45)cc(C(F)(F)F)c3[nH]2)C1` [Compound 466, 5-chloro-1′-[2-({2-[(cis)-3-hydroxy-3-methylcyclobutyl]-7-(trifluoromethyl)-1H-1,3-benzodiazol-5-yl}oxy)ethyl]-1,2-dihydrospiro[indole-3,4′-piperidin]-2-one], the EC50 in experiment [1] (setting [6]) was 4.26 nM; in experiment [2] (setting [7]) it was 19.4 nM; in experiment [3] (setting [8]), 11.9 nM; in experiment [4] (setting [9]), 8.71 nM; in experiment [5] (setting [10]), 30.6 nM.

In general, EC50 refers to the concentration at which the effect is half-maximal.

Values taken from patent US12344610B2, “APOL1 inhibitors and methods of use” (Maze Therapeutics, Inc., priority 2022, dated 2025).
